Experiments:
Venturia inaequalis = experiment: in vivo preventive test on Venturia test (apples); details: evaluated 10 days after inoculation
Procedure: (§1) Solvent: 24.5 parts by weight of acetone • 24.5 parts by weight of dimethylacetamide Emulsifier: 1 part by weight of alkylaryl polyglycol ether To produce a suitable preparation of active compound, 1 part by weight of active compound is mixed with the stated amounts of solvent and emulsifier, and the concentrate is diluted with water to the desired concentration. To test for preventive activity, young plants are sprayed with the preparation of active compound at the stated rate of application. After the spray coating has dried on, the plants are inoculated with an aqueous conidia suspension of the causal agent of apple scab (Venturia inaequalis) and then remain for 1 day in an incubation cabinet at approximately 20° C. and a relative atmospheric humidity of 100%. The plants are then placed in a greenhouse at approximately 21° C. and a relative atmospheric humidity of approximately 90%. The test is evaluated 10 days after the inoculation. 0% means an efficacy which corresponds to that of the untreated control, while an efficacy of 100% means that no disease is observed.

Alternaria solani = experiment: in vivo preventive test on Alternaria test (tomatoes); details: evaluated 3 days after inoculation
Procedure: as §1, with “aqueous spore” for “aqueous conidia”, “of Alternaria solani. The plants are” for “of the causal agent of apple scab (Venturia inaequalis) and”, “then placed” for “then remain for 1 day”, “The” for “The plants are then placed in a greenhouse at approximately 21° C. and a relative atmospheric humidity of approximately 90%. The”, “evaluated 3” for “evaluated 10”, “untreated control” for “untreated control,”

Septoria tritici = experiment: in vivo preventive Septoria tritici test (wheat); details: 15 ppm a.i., evaluated 21 days after inoculation
Procedure: Solvent: 49 parts by weight of N,N-dimethylacetamide Emulsifier: 1 part by weight of alkylaryl polyglycol ether To produce a suitable preparation of active compound, 1 part by weight of active compound or active compound combination is mixed with the stated amounts of solvent and emulsifier, and the concentrate is diluted with water to the desired concentration. To test for preventive activity, young plants are sprayed with the preparation of active compound or active compound combination at the stated rate of application. After the spray coating has been dried, the plants are sprayed with a spore suspension of Septoria tritici. The plants remain for 48 hours in an incubation cabinet at approximately 20° C. and a relative atmospheric humidity of approximately 100% and afterwards for 60 hours at approximately 15° C. in a translucent incubation cabinet at a relative atmospheric humidity of approximately 100%. The plants are placed in the greenhouse at a temperature of approximately 15° C. and a relative atmospheric humidity of approximately 80%. The test is evaluated 21 days after the inoculation. 0% means an efficacy which corresponds to that of the untreated control, while an efficacy of 100% means that no disease is observed.

Botrytis cinerea = experiment: in vivo preventive test on Botrytis test (beans); details: evaluated 2 days after inoculation
Procedure: Solvent: 24.5 parts by weight of acetone • 24.5 parts by weight of dimethylacetamide Emulsifier: 1 part by weight of alkylaryl polyglycol ether To produce a suitable preparation of active compound, 1 part by weight of active compound is mixed with the stated amounts of solvent and emulsifier, and the concentrate is diluted with water to the desired concentration. To test for preventive activity, young plants are sprayed with the preparation of active compound. After the spray coating has dried on, 2 small pieces of agar covered with growth of Botrytis cinerea are placed on each leaf. The inoculated plants are placed in a darkened chamber at 20° C. and a relative at mospheric humidity of 100%. 2 days after the inoculation, the size of the lesions on the leaves is evaluated. 0% means an efficacy which corresponds to that of the untreated control, while an efficacy of 100% means that no disease is observed.

| SMILES | Efficacy in % found (Venturia inaequalis; 1.25 ppm a.i.) [%] | Efficacy in % found (Alternaria solani; 1.25 ppm a.i.) [%] | Efficacy in % found (Alternaria solani; 2.5 ppm a.i.) [%] | Efficacy in % found (Septoria tritici) [%] | Efficacy in % found (Botrytis cinerea; 0.5 ppm a.i.) [%] | Efficacy in % found (Venturia inaequalis; 0.125 ppm a.i.) [%] | Efficacy in % found (Botrytis cinerea; 5 ppm a.i.) [%] |
| --- | --- | --- | --- | --- | --- | --- | --- |
| CCC(O)(Cn1cncn1)c1ccc(Oc2ccc(Cl)cc2)cc1C(F)(F)F (centres unmarked) [(B1-2), 2-[4-(4-chlorophenoxy)-2-(trifluoromethyl)phenyl]-1-(1H-1,2,4-triazol-1-yl)butan-2-ol] | 30 | 8 | 30 | 13 |  |  |  |
| CON(C(=O)c1cn(C)nc1C(F)F)C(C)Cc1c(Cl)cc(Cl)cc1Cl (centres unmarked) [(I-1), 3-(difluoromethyl)-N-methoxy-1-methyl-N-[1-(2,4,6-trichlorophenyl)propan-2-yl]-1H-pyrazole-4-carboxamide] |  |  |  |  | 8 | 76 |  |
| CC(O)(Cn1cncn1)c1ccc(Oc2ccc(Cl)cc2)cc1C(F)(F)F (centres unmarked) [(B1-1), 2-[4-(4-Chlorophenoxy)-2-(trifluoromethyl)phenyl]-1-(1H-1,2,4-triazol-1-yl)propan-2-ol] |  |  |  | 0 |  |  | 20 |

From patent publication US10130095B2, “Fungicidal compositions of pyrazolecarboxylic acid alkoxyamides” (BASF AGRO B.V., priority 2014, dated 2018)
